Data set [1] in a line: Apparent molecular weight (MWapp).
The nature of data set [2]: Octanol-water partition coefficient (log D7.4). The class given is physicochemical. Conditions: PBS pH 7.4 / n-octanol, 177Lu-labelled. The procedure:
Octanol-Water Partition Coefficient (log D7.4)
Approximately 1 MBq of the labelled tracer was dissolved in 1 mL of a 1:1 mixture (v/v) of PBS (pH 7.4) and n-octanol in a reaction vial (1.5 mL). After vigorous mixing of the suspension for 3 minutes at room temperature, the vial was centrifuged at 15000 g for 3 minutes (Biofuge 15, Heraus Sepatech, Osterode, Germany) and 100 μL aliquots of both layers were measured in a gamma counter. The experiment was repeated at least six times.

Data set [3] addresses T1, Human Serum Albumin (HSA) (Homo sapiens, UniProt P02768).
T1 construct: purchased Daicel H13H-2433
Kind of data set: Human serum albumin (HSA) binding by high performance affinity chromatography (HPAC). The class given is in vitro ADME. Conditions: Chiralpak HSA column. The method, then: Determination of Human Serum Albumin (HSA) Binding by High Performance Affinity Chromatography (HPAC)
HSA binding of the PSMA-addressing ligands was determined according to a previously published procedure via HPLC (Valko, K.; Nunhuck, S.; Bevan, C.; Abraham, M. H.; Reynolds, D. P. Journal of pharmaceutical sciences 2003, 92, 2236-2248). A Chiralpak HSA column (50×3 mm, 5 μm, H13H-2433, Daicel, Tokyo, Japan) was used at a constant flow rate of 0.5 mL/min at rt. Mobile phase A was a freshly prepared 50 mM aqueous solution of NH4OAc (pH 6.9) and mobile phase B was isopropanol (HPLC grade, VWR). The applied gradient for all experiments was 100% A (0 to 3 min), followed by 80% A (3 to 40 min). Prior to the experiment, the column was calibrated using nine reference substances with a HSA binding, known from literature, in the range of 13 to 99% (Valko, K.; Nunhuck, S.; Bevan, C.; Abraham, M. H.; Reynolds, D. P. Journal of pharmaceutical sciences 2003, 92, 2236-2248; Yamazaki, K.; Kanaoka, M. Journal of Pharmaceutical sciences 2004, 93, 1480-1494). All substances, including the examined PSMA ligands, were dissolved in a 1:1 mixture (v/v) of isopropanol and a 50 mM aqueous solution of NH4OAc (pH6.9) with a final concentration of 0.5 mg/mL. Non-linear regression was established with the OriginPro 2016G software (Northampton, United States) (FIG. 8).

Another data set addresses T2, PSMA (Homo sapiens, UniProt Q04609).
T2 construct: PSMA-positive LNCAP cells (300265; Cell Lines Service, Eppelheim, Germany); host or cells: LNCaP cells
Kind of data set: PSMA affinity (IC50), competition with [125I]I-BA-KuE on LNCaP cells. The class given is binding. Conditions: natLu complex, on ice 60 min. The method, then:
A mixture of trypsin and EDTA (0.05%, 0.02%) in PBS (Biochrom) was used in order to harvest cells. Cells were counted with a Neubauer hemocytometer (Paul Marienfeld, Lauda-Königshofen, Germany).
Affinity Determinations (IC50)
In the case of metal-complexed ligands, the crude reaction mixture was diluted analogously, without further purification. Cells were harvested 24±2 hours prior to the experiment and seeded in 24-well plates (1.5×10^5 cells in 1 mL/well). […] The media of both steps were combined in one fraction and represent the amount of free radioligand. Afterwards, the cells were lysed with 250 μL of 1 M aqueous NaOH for at least 10 min. After a washing step (250 μL of 1 M NaOH), both fractions, representing the amount of bound ligand, were united. Quantification of all collected fractions was accomplished in a γ-counter. PSMA-affinity determinations were carried out at least three times per ligand.

Data set [4] has as its system LNCaP tumor-bearing male CB-17 SCID mice. Nature of the data set: Biodistribution studies 24 h p.i. Conditions: for In vivo biodistribution (24 h p.i.) blood / In vivo biodistribution (24 h p.i.) kidney / In vivo biodistribution (24 h p.i.) tumor: Table 6; for uptake in adrenals / uptake in blood / uptake in bone / uptake in heart / uptake in intestine / uptake in kidney / uptake in liver / uptake in lung / uptake in muscle / uptake in pancreas / uptake in parotid gl. / uptake in spleen / uptake in stomach / uptake in submand. gl. / uptake in tumor: mean.
Procedure: Approximately 3-7 MBq (0.1-0.2 nmol) of the radioactive-labelled PSMA inhibitors were injected into the tail vein of LNCaP tumor-bearing male CB-17 SCID mice and sacrificed after 24 h post injection. Selected organs were removed, weighted and measured in a γ-counter. Results are all decay corrected and given in % injected dose per gram of tissue (% iD/g). Tumor-to-organ ratios are calculated from animals' individual ratios and are given as mean±standard deviation.

A further data set has as its system LNCaP cells. Kind of data set: Internalization studies in LNCaP cells. Conditions: 37° C., 60 min. It counts as cell-based. The method, then: PSMA-positive LNCAP cells (300265; Cell Lines Service, Eppelheim, Germany) were cultivated in Dulbecco modified Eagle medium/Nutrition Mixture F-12 with Glutamax (1:1) (DMEM-F12, Biochrom, Berlin, Germany) supplemented with fetal bovine serum (10%, FBS Zellkultur, Berlin, Germany) and kept at 37° C. in a humidified CO2 atmosphere (5%). A mixture of trypsin and EDTA (0.05%, 0.02%) in PBS (Biochrom) was used in order to harvest cells. Cells were counted with a Neubauer hemocytometer (Paul Marienfeld, Lauda-Königshofen, Germany).
For internalization studies, LNCaP cells were harvested 24±2 hours before the experiment and seeded in poly-L-lysine coated 24-well plates (1.25×10^5 cells in 1 mL/well, Greiner Bio-One, Kremsmünster, Austria). After removal of the culture medium, the cells were washed once with 500 μL DMEM-F12 (5% BSA) and left to equilibrate for at least 15 min at 37° C. in […] DMEM-F12 (5% BSA). Each well was treated with either 25 μL of either DMEM-F12 (5% BSA, control) or 25 μL of a 100 μM PMPA (2-(Phosphonomethyl)-pentandioic acid, Tocris Bioscience, Bristol, UK) solution in PBS, for blockade. Next, 25 μL of the radioactive-labelled PSMA inhibitor (10.0 nM in DMEM-F12 (5% BSA)) was added and the cells were incubated at 37° C. for 60 min. The experiment was terminated by placing the 24-well plate on ice for 3 min and consecutive removal of the medium. Each well was carefully washed with 250 μL of ice-cold HBSS. Both fractions from the first steps, representing the amount of free radioligand, were combined. Removal of surface bound activity was accomplished by incubation of the cells with 250 μL of ice-cold PMPA (10 μM in PBS) solution for 5 min and rinsed again with another 250 μL of ice-cold PBS. The internalized activity was determined by incubation of the cells in 250 μL […] aqueous NaOH for at least 10 min. The obtained fractions were combined with those of the subsequent wash step with 250 μL 1 M aqueous NaOH. Each experiment (control and blockade) was performed in triplicate. Free, surface bound and internalized activity was quantified in a y-counter. All internalization studies were accompanied by external reference studies, using ([^125I]I-BA)KuE (c=0.2 nM), which were performed analogously. Data were corrected for non-specific binding and normalized to the specific-internalization observed for the radioiodinated reference compound.

From patent US20240165281A1, “DUAL MODE RADIOTRACER AND THERAPEUTICS” (Technische Universität München, priority 2021, published 2024) come the findings set out here.

Like-named read-outs stand apart in the source and are kept apart here.

T1 sequence (P02768 25-609): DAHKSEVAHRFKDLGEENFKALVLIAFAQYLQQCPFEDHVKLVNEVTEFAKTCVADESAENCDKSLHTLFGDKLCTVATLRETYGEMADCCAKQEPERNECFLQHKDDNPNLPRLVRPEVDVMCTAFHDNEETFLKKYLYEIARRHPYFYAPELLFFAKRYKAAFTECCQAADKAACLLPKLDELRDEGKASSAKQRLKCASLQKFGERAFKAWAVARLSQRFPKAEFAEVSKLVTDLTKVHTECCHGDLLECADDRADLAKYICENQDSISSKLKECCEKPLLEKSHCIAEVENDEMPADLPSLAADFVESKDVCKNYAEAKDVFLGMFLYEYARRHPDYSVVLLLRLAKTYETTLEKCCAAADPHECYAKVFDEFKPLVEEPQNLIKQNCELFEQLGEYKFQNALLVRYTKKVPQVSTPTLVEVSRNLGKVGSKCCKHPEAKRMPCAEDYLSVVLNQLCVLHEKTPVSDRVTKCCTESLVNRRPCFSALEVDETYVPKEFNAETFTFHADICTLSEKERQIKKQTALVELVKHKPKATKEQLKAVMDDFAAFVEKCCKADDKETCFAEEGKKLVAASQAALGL
T2 sequence (Q04609 whole entry): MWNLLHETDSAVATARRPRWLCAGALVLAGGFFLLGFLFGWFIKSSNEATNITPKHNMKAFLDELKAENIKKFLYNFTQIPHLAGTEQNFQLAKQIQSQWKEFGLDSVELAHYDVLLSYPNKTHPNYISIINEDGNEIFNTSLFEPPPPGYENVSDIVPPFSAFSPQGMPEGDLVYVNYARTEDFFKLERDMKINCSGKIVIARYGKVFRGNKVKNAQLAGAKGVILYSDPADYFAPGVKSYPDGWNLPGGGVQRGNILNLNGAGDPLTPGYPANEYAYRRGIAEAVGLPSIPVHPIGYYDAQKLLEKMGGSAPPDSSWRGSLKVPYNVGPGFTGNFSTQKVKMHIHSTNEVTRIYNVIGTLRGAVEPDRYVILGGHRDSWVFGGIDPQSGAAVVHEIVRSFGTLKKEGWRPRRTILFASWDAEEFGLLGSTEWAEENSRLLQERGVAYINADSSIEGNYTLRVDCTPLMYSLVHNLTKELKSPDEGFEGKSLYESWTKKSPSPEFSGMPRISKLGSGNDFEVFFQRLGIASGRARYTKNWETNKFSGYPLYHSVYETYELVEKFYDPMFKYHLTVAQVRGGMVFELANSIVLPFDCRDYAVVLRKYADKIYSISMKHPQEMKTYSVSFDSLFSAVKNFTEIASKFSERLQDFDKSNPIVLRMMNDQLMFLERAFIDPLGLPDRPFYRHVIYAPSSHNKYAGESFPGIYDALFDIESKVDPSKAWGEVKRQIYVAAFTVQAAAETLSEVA

On to `CC(C)(C)[Si](F)(c1ccc(C(=O)NCC(NC(=O)CCC(C(=O)O)N2CCN(CC(=O)O)CCN(CC(=O)O)CCN(CC(=O)O)CC2)C(=O)NC(CN)C(=O)NCCC(=O)NCCC(=O)NCCCC(NC(=O)CCC(NC(=O)NC(CCC(=O)O)C(=O)O)C(=O)O)C(=O)O)cc1)C(C)(C)C` (stereo not shown) [Compound 2C011], for which, in data set [1], the MWapp came to 18.9 kDa. Also, the logD7.4 in data set [2] is reported as −2.88 ± 0.06. The “HSA (HPAC)” value in data set [3] came out at 89.8%. The molecule also gave a half-maximal inhibitory concentration (IC50) at PSMA of 6.08 ± 0.16 nM. Besides, in data set [4], the “In vivo biodistribution (24 h p.i.) blood” value stood at 0.0042 ± 0.0019 % iA/g, the “In vivo biodistribution (24 h p.i.) kidney” value is on record as 2.1 ± 0.49 % iA/g, the “In vivo biodistribution (24 h p.i.) tumor” value worked out at 11.86 ± 0.75 % iA/g and the uptake in adrenals stood at 0.1488 % iD/g. In data set [4], this molecule showed an uptake in blood of 0.0042 % iD/g, an uptake in bone of 0.0363 % iD/g, an uptake in heart of 0.0254 % iD/g and an uptake in intestine of 0.2229 % iD/g. In data set [4], this molecule had an uptake in kidney of 2.0983 % iD/g, an uptake in liver of 0.2848 % iD/g, an uptake in lung of 0.0469 % iD/g and an uptake in muscle of 0.0067 % iD/g. Further, in data set [4], the uptake in pancreas was 0.0264 % iD/g, the “uptake in parotid gl.” value stood at 0.0857 % iD/g, the uptake in spleen is reported as 0.3218 % iD/g and the uptake in stomach is recorded as 0.0829 % iD/g. In data set [4], the “uptake in submand. gl.” value amounted to 0.052 % iD/g and the uptake in tumor came out at 11.8594 % iD/g. Further, the Internalization in the data set on LNCaP cells (normalized to reference) was determined as 163.2 ± 6.91 % IBA.
Regarding `CC(C)(C)[Si](F)(c1ccc(C(=O)NC[C@@H](NC(=O)[C@@H](CCCNC(N)=O)NC(=O)CC[C@@H](C(=O)O)N2CCN(CC(=O)O)CCN(CC(=O)O)CCN(CC(=O)O)CC2)C(=O)NCCCCCC(=O)NCCC[C@@H](NC(=O)CC[C@H](NC(=O)N[C@@H](CCC(=O)O)C(=O)O)C(=O)O)C(=O)O)cc1)C(C)(C)C` [Compound 2C014], the MWapp in data set [1] is listed as 19.2 kDa. Besides, the logD7.4 in data set [2] is −3.37 ± 0.10. For the same molecule, in data set [3], the “HSA (HPAC)” value worked out at 94.6%. Further, the IC50 at PSMA (read-out: IC50) worked out at 3.95 ± 1.36 nM. Moreover, in data set [4], the “In vivo biodistribution (24 h p.i.) blood” value turned out to be 0.0014 ± 0.0006 % iA/g, the “In vivo biodistribution (24 h p.i.) kidney” value is listed as 2.77 ± 0.84 % iA/g, the “In vivo biodistribution (24 h p.i.) tumor” value is listed as 16.54 ± 3.37 % iA/g and the uptake in adrenals was 0.1473 % iD/g. In data set [4], the uptake in blood turned out to be 0.0014 % iD/g, the uptake in bone was found to be 0.0327 % iD/g, the uptake in heart came out at 0.0245 % iD/g and the uptake in intestine is 0.1006 % iD/g. In data set [4], this molecule showed an uptake in kidney of 2.7708 % iD/g, an uptake in liver of 0.2376 % iD/g, an uptake in lung of 0.0654 % iD/g and an uptake in muscle of 0.0107 % iD/g. For the same molecule, in data set [4], the uptake in pancreas is given as 0.0192 % iD/g, the “uptake in parotid gl.” value was determined as 0.09 % iD/g, the uptake in spleen came out at 0.4296 % iD/g and the uptake in stomach was determined as 0.0367 % iD/g. Besides, in data set [4], the “uptake in submand. gl.” value worked out at 0.0555 % iD/g and the uptake in tumor amounted to 16.5415 % iD/g. In addition, the Internalization with LNCaP cells (normalized to reference) was 235 ± 20 % IBA.
On to `CC(C)(C)[Si](F)(c1ccc(C(=O)NC[C@@H](NC(=O)CC[C@@H](C(=O)O)N2CCN(CC(=O)O)CCN(CC(=O)O)CCN(CC(=O)O)CC2)C(=O)N[C@H](CCCCNC(=O)CCC(=O)NCCC[C@@H](NC(=O)CC[C@H](NC(=O)N[C@@H](CCC(=O)O)C(=O)O)C(=O)O)C(=O)O)C(=O)O)cc1)C(C)(C)C` [rhPSMA-7.3, reference compound], for which the MWapp in data set [1] amounted to 30.4 kDa. Also, in data set [2], the logD7.4 is given as −4.12 ± 0.11^. Further, in data set [3], the “HSA (HPAC)” value turned out to be 98.6%. The IC50 on PSMA (read-out: IC50) was found to be 3.29 ± 1 nM. Besides, in data set [4] (Table 1), the “Kidneys (24 h)” value is listed as 1.4 ± 0.4 % iD/g and the “Tumor (24 h)” value was found to be 7.5 ± 0.9 % iD/g. Also, in data set [4] (tumor/kidney, Table 1), the T/K-ratio stood at 5.17. The Internalization in the data set on LNCaP cells (normalized to ([125I]I-BA)KuE) was determined as 184 ± 12 % IBA-KuE.
Take PSMA-617 [reference compound]: in data set [4], the uptake in adrenals came to 0.1910 % iD/g, the uptake in blood came to 0.0056 % iD/g, the uptake in bone was found to be 0.0267 % iD/g and the uptake in heart is listed as 0.0119 % iD/g. For the same molecule, in data set [4], the uptake in intestine worked out at 0.1185 % iD/g, the uptake in kidney turned out to be 1.4421 % iD/g, the uptake in liver amounted to 0.1167 % iD/g and the uptake in lung worked out at 0.0393 % iD/g. In data set [4], the uptake in muscle was 0.0092 % iD/g, the uptake in pancreas turned out to be 0.0106 % iD/g, the uptake in spleen came to 0.0812 % iD/g and the uptake in stomach came out at 0.0201 % iD/g. Also, in data set [4], the uptake in tumor amounted to 7.4568 % iD/g. For the same molecule, in data set [4] (n = 4, mean), the tumor-to-organ ratio adrenals is given as 43.54, the tumor-to-organ ratio blood worked out at 1423.84, the tumor-to-organ ratio bone was determined as 471.67 and the tumor-to-organ ratio heart is 704.01. Further, in data set [4] (n = 4, mean), the tumor-to-organ ratio intestine was 90.33, the tumor-to-organ ratio kidney was found to be 5.85, the tumor-to-organ ratio liver is given as 91.22 and the tumor-to-organ ratio lung was found to be 210.40. In addition, in data set [4] (n = 4, mean), the tumor-to-organ ratio muscle was 855.38, the tumor-to-organ ratio pancreas is 798.52, the tumor-to-organ ratio spleen was determined as 93.28 and the tumor-to-organ ratio stomach is on record as 375.80.

The term IC50 denotes the concentration at which inhibition is half-maximal.
